Test results taken from the SangsterLogP compilation.

logP	Compound
4.02	CSc1n[nH]c(C2CCCCC2C(=O)Nc2ccc(Br)cc2)n1 (stereo unspecified)
3.3	CSc1n[nH]c(C2CCCCC2C(=O)Nc2ccccc2)n1 (stereo unspecified)
2.55	CCCNC(=O)C1CCCCC1c1nc(SC)n[nH]1 (stereo unspecified)
3.29	CSc1n[nH]c(C2C3C=CC(C3)C2C(=O)Nc2cccc(C)c2)n1 (stereo unspecified)
2.13	CCCNC(=O)C1C2C=CC(C2)C1c1nc(SC)n[nH]1 (stereo unspecified)
2.97	CCCCNC(=O)C1CCCCC1c1nc(SC)n[nH]1 (stereo unspecified)
2.91	CSc1n[nH]c(C2C3C=CC(C3)C2C(=O)Nc2ccccc2)n1 (stereo unspecified)
3.19	COc1ccc(NC(=O)C2CCCCC2c2nc(SC)n[nH]2)cc1 (stereo unspecified)
3.12	CSc1n[nH]c(C2C3C=CC(C3)C2C(=O)NCCc2ccccc2)n1 (stereo unspecified)
3.03	CSc1n[nH]c(C2C3C=CC(C3)C2C(=O)NC2CCCCC2)n1 (stereo unspecified)
2.55	CCCCNC(=O)C1C2C=CC(C2)C1c1nc(SC)n[nH]1 (stereo unspecified)
3.84	CSc1n[nH]c(C2CCCCC2C(=O)Nc2ccccc2Cl)n1 (stereo unspecified)
3.48	CSc1n[nH]c(C2CCCCC2C(=O)NC2CCCCC2)n1 (stereo unspecified)
3.67	CSc1n[nH]c(C2C3C=CC(C3)C2C(=O)Nc2ccc(Br)cc2)n1 (stereo unspecified)
3.44	CSc1n[nH]c(C2C3C=CC(C3)C2C(=O)Nc2ccccc2Cl)n1 (stereo unspecified)
2.57	CCC(C)NC(=O)C1C2C=CC(C2)C1c1nc(SC)n[nH]1 (stereo unspecified)
2.97	CCC(C)NC(=O)C1CCCCC1c1nc(SC)n[nH]1 (stereo unspecified)
2.8	CSc1n[nH]c(C2C3C=CC(C3)C2C(=O)NCc2ccccc2)n1 (stereo unspecified)
3.51	CSc1n[nH]c(C2CCCCC2C(=O)NCCc2ccccc2)n1 (stereo unspecified)
2.86	COc1ccc(NC(=O)C2C3C=CC(C3)C2c2nc(SC)n[nH]2)cc1 (stereo unspecified)
3.17	CSc1n[nH]c(C2CCCCC2C(=O)NCc2ccccc2)n1 (stereo unspecified)
